# Molecular target: T1, human PTH1 receptor (Homo sapiens, UniProt Q03431)
# T1 sequence (Q03431 27-593): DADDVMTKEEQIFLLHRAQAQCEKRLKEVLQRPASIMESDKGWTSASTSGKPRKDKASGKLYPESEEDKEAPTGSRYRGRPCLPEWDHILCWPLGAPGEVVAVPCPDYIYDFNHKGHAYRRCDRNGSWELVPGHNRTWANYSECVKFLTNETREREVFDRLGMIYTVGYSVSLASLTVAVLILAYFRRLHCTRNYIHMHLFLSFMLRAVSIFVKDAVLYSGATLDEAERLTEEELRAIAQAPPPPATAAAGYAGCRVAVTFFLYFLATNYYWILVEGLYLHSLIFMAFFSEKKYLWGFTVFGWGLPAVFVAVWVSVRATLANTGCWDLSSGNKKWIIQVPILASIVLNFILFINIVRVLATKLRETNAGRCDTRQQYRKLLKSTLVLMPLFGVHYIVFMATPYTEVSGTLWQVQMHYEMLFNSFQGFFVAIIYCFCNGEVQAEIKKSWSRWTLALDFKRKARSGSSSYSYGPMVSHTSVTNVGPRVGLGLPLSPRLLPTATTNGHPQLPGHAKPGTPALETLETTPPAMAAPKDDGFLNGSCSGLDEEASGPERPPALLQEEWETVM
# Assay: In vitro cAMP signal activity in HKRK-B7 cells (LLC-PK1 cells overexpressing the human PTH1 receptor)
# Type: cell-based
# Settings: HKRK-B7 cells; compound at 1×10^−3 M; cAMP produced as percentage of that produced by hPTH(1-34) at 100 nM
row,SMILES,cAMP production activity (%)
1,"CC(=O)NS(=O)(=O)c1ccc(/C=C/S(=O)(=O)N2CCC3(CC2)N=C(c2cccc(C(F)(F)F)c2)NC3=O)c(C)c1 [Compound 594, N-acetyl-3-methyl-4-{(E)-2-[4-oxo-2-(3-trifluoromethyl-phenyl)-1,3,8-triaza-spiro[4.5]dec-1-ene-8-sulfonyl]-vinyl}-benzenesulfonamide]",69
2,"CC(=O)N(CCO)c1cc(C)c(CCS(=O)(=O)N2CCC3(CC2)N=C(c2ccc(F)c(C(F)(F)F)c2)NC3=O)c(C)c1 [Compound 794, N-(4-{2-[2-(4-fluoro-3-trifluoromethyl-phenyl)-4-oxo-1,3,8-triaza-spiro[4.5]dec-1-ene-8-sulfonyl]-ethyl}-3,5-dimethyl-phenyl)-N-(2-hydroxy-ethyl)-acetamide]",76
3,"Cc1cc(C(=O)N2CCC(C)(O)CC2)cc(C)c1CCS(=O)(=O)N1CCC2(CC1)N=C(c1ccc(C(F)(F)F)c(Cl)c1)NC2=O [Compound 1236, 2-(3-chloro-4-trifluoromethyl-phenyl)-8-{2-[4-(4-hydroxy-4-methyl-piperidine-1-carbonyl)-2,6-dimethyl-phenyl]-ethanesulfonyl}-1,3,8-triaza-spiro[4.5]dec-1-en-4-one]",99
4,"Cc1cc(C(=O)N2CC(O)C2)cc(C)c1/C=C/S(=O)(=O)N1CCC2(CC1)N=C(c1cccc(OC(F)(F)F)c1)NC2=O [Compound 408, 8-{(E)-2-[4-(3-hydroxy-azetidine-1-carbonyl)-2,6-dimethyl-phenyl]-ethenesulfonyl}-2-(3-trifluoromethoxy-phenyl)-1,3,8-triaza-spiro[4.5]dec-1-en-4-one]",117
5,"CC(C)(C)CNC(=O)Cc1ccc(/C=C/S(=O)(=O)N2CCC3(CC2)N=C(C2CCCCC2)NC3=O)cc1 [Compound 570, 2-{4-[(E)-2-(2-cyclohexyl-4-oxo-1,3,8-triaza-spiro[4.5]dec-1-ene-8-sulfonyl)-vinyl]-phenyl}-N-(2,2-dimethyl-propyl)-acetamide]",66
6,"Cc1cc(C(=O)O)cc(C)c1CCS(=O)(=O)N1CCC2(CC1)N=C(C1CCC(CCC(F)(F)F)CC1)NC2=O (stereo not drawn) [Compound 768, 3,5-dimethyl-4-(2-{4-oxo-2-[4-(3,3,3-trifluoro-propyl)-cyclohexyl]-1,3,8-triaza-spiro[4.5]dec-1-ene-8-sulfonyl}-ethyl)-benzoic acid]",79
7,"Nc1ccc(CCS(=O)(=O)N2CCC3(CC2)N=C(C2CCCCC2)NC3=O)c(C(F)(F)F)c1 [Compound 314, 8-[2-(4-amino-2-trifluoromethyl-phenyl)-ethanesulfonyl]-2-cyclohexyl-1,3,8-triaza-spiro[4.5]dec-1-en-4-one]",68
8,"Cc1cc(N2CCOC2=O)ccc1CCS(=O)(=O)N1CCC2(CC1)N=C(C1CCC(C)CC1)NC2=O (stereo not drawn) [Compound 865, 2-(4-methyl-cyclohexyl)-8-{2-[2-methyl-4-(2-oxo-oxazolidin-3-yl)-phenyl]-ethanesulfonyl}-1,3,8-triaza-spiro[4.5]dec-1-en-4-one]",8.9
9,"Cc1cc(N(C)C(N)=O)cc(C)c1/C=C/S(=O)(=O)N1CCC2(CC1)N=C(c1ccc(OCCCC(F)(F)F)cc1)NC2=O [Compound 1020, 1-[3,5-dimethyl-4-((E)-2-{4-oxo-2-[4-(4,4,4-trifluoro-butoxy)-phenyl]-1,3,8-triaza-spiro[4.5]dec-1-ene-8-sulfonyl}-vinyl)-phenyl]-1-methyl-urea]",81
10,"Cc1cc(N2CCOCC2=O)cc(C)c1CCS(=O)(=O)N1CCC2(CC1)N=C(C1CCC(C)CC1)NC2=O (stereo not drawn) [Compound 765, 8-{2-[2,6-dimethyl-4-(3-oxo-morpholin-4-yl)-phenyl]-ethanesulfonyl}-2-(4-methyl-cyclohexyl)-1,3,8-triaza-spiro[4.5]dec-1-en-4-one]",101
11,"CCCCCc1ccc(C2=NC3(CCN([S@TB18](=O)(=O)/C=C/c4c(C)cc(N(C)C(N)=O)cc4C)CC3)C(=O)N2)cc1OC [Compound 1128, 1-(4-{(E)-2-[2-(3-methoxy-4-pentyl-phenyl)-4-oxo-1,3,8-triaza-spiro[4.5]dec-1-ene-8-sulfonyl]-vinyl}-3,5-dimethyl-phenyl)-1-methyl-urea]",119
12,"CC(=O)Nc1ccc(CCS(=O)(=O)N2CCC3(CC2)N=C([C@H]2CC[C@H](CC=C(F)F)CC2)NC3=O)c(C)c1 [Compound 1067, N-[4-(2-{2-[4-(3,3-difluoro-allyl)-cyclohexyl]-4-oxo-1,3,8-triaza-spiro[4.5]dec-1-ene-8-sulfonyl}-ethyl)-3-methyl-phenyl]-acetamide]",69
13,"Cc1cc(N(C)c2c(N)c(=O)c2=O)cc(C)c1CCS(=O)(=O)N1CCC2(CC1)N=C([C@H]1CC[C@H](C)CC1)NC2=O [Compound 1368, 3-Amino-4-[(3,5-dimethyl-4-{2-[2-(4-methyl-cyclohexyl)-4-oxo-1,3,8-triaza-spiro[4.5]dec-1-ene-8-sulfonyl]-ethyl}-phenyl)-methyl-amino]-cyclobut-3-ene-1,2-dione]",83
14,"CS(=O)(=O)c1cccc(C2=NC3(CCN(S(=O)(=O)c4cccc(Cl)c4)CC3)C(=O)N2)c1 [Compound 32, 8-(3-chloro-benzenesulfonyl)-2-(3-methanesulfonyl-phenyl)-1,3,8-triaza-spiro[4.5]dec-1-en-4-one]",26
15,"Cc1cc(C(=O)N(C)C)ccc1CCS(=O)(=O)N1CCC2(CC1)N=C(c1cccc(OC(F)(F)F)c1)N=C2N(C)C [Compound 899, 4-{2-[4-dimethylamino-2-(3-trifluoromethoxy-phenyl)-1,3,8-triaza-spiro[4.5]deca-1,3-diene-8-sulfonyl]-ethyl}-3,N,N-trimethyl-benzamide]",12
16,"Cc1cc(C(=O)N2CCC(F)C2)ccc1CCS(=O)(=O)N1CCC2(CC1)N=C(c1cccc(C(F)(F)F)c1)NC2=O (stereo not drawn) [Compound 378, 8-{2-[4-(3-fluoro-pyrrolidine-1-carbonyl)-2-methyl-phenyl]-ethanesulfonyl}-2-(3-trifluoromethyl-phenyl)-1,3,8-triaza-spiro[4.5]dec-1-en-4-one]",60
17,"Cc1cc(C2=NC3(CCN(S(=O)(=O)/C=C/c4c(C)cc(C(=O)N5CCC(C)(O)CC5)cc4C)CC3)C(=O)N2)ccc1C(F)(F)F [Compound 1193, 8-{(E)-2-[4-(4-hydroxy-4-methyl-piperidine-1-carbonyl)-2,6-dimethyl-phenyl]-ethenesulfonyl}-2-(3-methyl-4-trifluoromethyl-phenyl)-1,3,8-triaza-spiro[4.5]dec-1-en-4-one]",86
18,"CC1CCC(C2=NC3(CCN(S(=O)(=O)CCc4cccc5[nH]ccc45)CC3)C(=O)N2)CC1 (stereo not drawn) [Compound 306, 8-[2-(1H-indol-4-yl)-ethanesulfonyl]-2-(4-methyl-cyclohexyl)-1,3,8-triaza-spiro[4.5]dec-1-en-4-one]",45
19,"Cc1cc(C(=O)N2CCCCC2)ccc1CCS(=O)(=O)N1CCC2(CC1)N=C(c1cccc(C(F)(F)F)c1)NC2=O [Compound 380, 8-{2-[2-methyl-4-(piperidine-1-carbonyl)-phenyl]-ethanesulfonyl}-2-(3-trifluoromethyl-phenyl)-1,3,8-triaza-spiro[4.5]dec-1-en-4-one]",75
20,"Cc1cc(C(=O)N2CCC(O)(CF)CC2)ccc1CCS(=O)(=O)N1CCC2(CC1)N=C([C@H]1CC[C@H](CC=C(F)F)CC1)NC2=O [Compound 974, 2-[4-(3,3-difluoro-allyl)-cyclohexyl]-8-{2-[4-(4-fluoromethyl-4-hydroxy-piperidine-1-carbonyl)-2-methyl-phenyl]-ethanesulfonyl}-1,3,8-triaza-spiro[4.5]dec-1-en-4-one]",111
21,"CN(C)C(=O)c1ccc(-c2ccc(S(=O)(=O)N3CCC4(CC3)N=C(c3cccc(C(F)(F)F)c3)NC4=O)s2)cc1 [Compound 329, N,N-Dimethyl-4-{5-[4-oxo-2-(3-trifluoromethyl-phenyl)-1,3,8-triaza-spiro[4.5]dec-1-ene-8-sulfonyl]-thiophen-2-yl}-benzamide]",33
22,"Cc1cc(N(C)C(N)=O)cc(C)c1CCS(=O)(=O)N1CCC2(CC1)N=C(CCCCCCCCCc1ccccc1)NC2=O [Compound 1348, 1-(3,5-dimethyl-4-{2-[4-oxo-2-(9-phenyl-nonyl)-1,3,8-triaza-spiro[4.5]dec-1-ene-8-sulfonyl]-ethyl}-phenyl)-1-methyl-urea]",95
23,"O=C(CNc1ccc(CCS(=O)(=O)N2CCC3(CC2)N=C(C2CCCCC2)NC3=O)c(C(F)(F)F)c1)NCCCCO [Compound 660, 2-{4-[2-(2-cyclohexyl-4-oxo-1,3,8-triaza-spiro[4.5]dec-1-ene-8-sulfonyl)-ethyl]-3-trifluoromethyl-phenylamino}-N-(4-hydroxy-butyl)-acetamide]",60
24,"CC(=O)N(CCO)c1ccc(CCS(=O)(=O)N2CCC3(CC2)N=C(c2cccc(OC(F)(F)F)c2)NC3=O)c(C)c1 [Compound 149, N-(2-Hydroxy-ethyl)-N-(3-methyl-4-{2-[4-oxo-2-(3-trifluoromethoxy-phenyl)-1,3,8-triaza-spiro[4.5]dec-1-ene-8-sulfonyl]-ethyl}-phenyl)-acetamide]",56

# Source: patent US9169254B2, “Spiroimidazolone derivative” (Chugai Seiyaku Kabushiki Kaisha, priority 2009, dated 2015)
